Source: patent US20230102554A1 (GB002, INC., priority 2019, published 2023)

Experiments:
[1] = molecular target: T1, Human PDGFRα, cytoplasmic domain (GST-PDGFRα) (Homo sapiens, UniProt P16234); assay: Human PDGFRα biochemical inhibition assay (off-chip Mobility Shift Assay)
T1 construct: made in house

[2] = molecular target: T2, Human PDGFRβ, cytoplasmic domain (GST-PDGFRβ) (Homo sapiens, UniProt P09619); assay: Human PDGFRβ biochemical inhibition assay (off-chip Mobility Shift Assay)
T2 construct: made in house
Outline: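 GST-tagged cytoplasmic domain (aa 557-1106) from baculovirus was incubated 1 h at room temperature with compound, CSKtide, ATP at Km and Mg²⁺ in HEPES buffer, pH 7.5. Phosphorylated and unphosphorylated peptide were separated by off-chip mobility shift, and the product ratio P/(P+S) gave percent inhibition.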

T2 sequence (P09619 with tags, fused parts or gaps): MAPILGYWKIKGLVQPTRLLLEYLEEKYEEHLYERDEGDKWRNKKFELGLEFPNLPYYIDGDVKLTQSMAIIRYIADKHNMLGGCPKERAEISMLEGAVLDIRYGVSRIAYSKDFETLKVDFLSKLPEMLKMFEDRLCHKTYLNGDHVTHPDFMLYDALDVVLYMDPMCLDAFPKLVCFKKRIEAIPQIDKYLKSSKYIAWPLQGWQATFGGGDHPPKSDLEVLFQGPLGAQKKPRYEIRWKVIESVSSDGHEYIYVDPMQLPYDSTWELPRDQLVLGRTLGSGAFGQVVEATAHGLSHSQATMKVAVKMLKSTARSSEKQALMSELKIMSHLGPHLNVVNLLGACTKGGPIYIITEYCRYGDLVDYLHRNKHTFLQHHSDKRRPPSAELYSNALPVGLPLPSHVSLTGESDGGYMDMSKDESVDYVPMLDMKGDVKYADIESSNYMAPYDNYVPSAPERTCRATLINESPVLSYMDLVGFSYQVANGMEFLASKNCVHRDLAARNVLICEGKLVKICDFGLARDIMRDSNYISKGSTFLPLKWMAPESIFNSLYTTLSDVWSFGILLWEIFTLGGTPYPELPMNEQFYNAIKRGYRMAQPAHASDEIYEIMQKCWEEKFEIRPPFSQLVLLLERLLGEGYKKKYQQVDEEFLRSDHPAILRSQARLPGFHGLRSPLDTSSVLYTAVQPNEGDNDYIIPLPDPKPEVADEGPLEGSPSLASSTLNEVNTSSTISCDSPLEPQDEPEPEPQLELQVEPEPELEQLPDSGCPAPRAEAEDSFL
T1 sequence (P16234 550-1089 T674I): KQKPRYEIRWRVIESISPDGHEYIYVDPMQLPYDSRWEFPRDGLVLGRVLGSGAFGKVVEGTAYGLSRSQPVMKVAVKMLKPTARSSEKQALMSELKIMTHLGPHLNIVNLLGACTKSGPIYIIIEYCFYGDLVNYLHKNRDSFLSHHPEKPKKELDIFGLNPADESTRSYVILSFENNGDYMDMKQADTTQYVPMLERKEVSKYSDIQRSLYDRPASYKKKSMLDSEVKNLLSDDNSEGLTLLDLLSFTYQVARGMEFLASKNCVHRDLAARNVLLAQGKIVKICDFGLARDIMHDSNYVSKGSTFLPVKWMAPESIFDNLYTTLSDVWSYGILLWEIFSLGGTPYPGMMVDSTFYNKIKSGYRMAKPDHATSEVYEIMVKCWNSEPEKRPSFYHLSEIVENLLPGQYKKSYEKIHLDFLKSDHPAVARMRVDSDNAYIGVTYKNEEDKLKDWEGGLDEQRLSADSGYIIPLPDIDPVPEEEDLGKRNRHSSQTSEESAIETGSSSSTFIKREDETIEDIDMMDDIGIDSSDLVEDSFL

SMILES | IC50 [1] [nM] | IC50 [2] [nM]
CCn1cc2ncc(N[C@@H](C)c3cccc(NC(=O)c4cnc(NC(C)=O)s4)c3)nc2n1 [Compound 370, (S)-2-acetamido-N-(3-(1-((2-ethyl-2H-pyrazolo[3,4-b]pyrazin-6-yl)amino)ethyl)phenyl)thiazole-5-carboxamide] | 300 to 1000 | ≥ 1000
Cc1cncc(C(=O)Nc2cccc([C@H](C)Nc3cnc4ccn(CCN5CCOCC5)c4n3)c2)c1 [Compound 85, (S)-5-methyl-N-(3-(1-((5-(2-morpholinoethyl)-5H-pyrrolo [2,3-b]pyrazin-3-yl)amino)ethyl)phenyl)nicotinamide] | ≥ 1000 | ≥ 1000
CCn1cc2ncc(N[C@@H](C)c3cccc(NC(=O)c4ccc(N(C)C)nc4)c3)nc2n1 [Compound 377, (S)-6-(dimethylamino)-N-(3-(1-((2-ethyl-2H-pyrazolo[3,4-b]pyrazin-6-yl)amino)ethyl)phenyl)nicotinamide] | 300 to 1000 | 300 to 1000
CCn1cc2ncc(N[C@@H](C)c3cc(NC(=O)Cc4cncc(F)c4)ccc3C)nc2n1 [Compound 659, (S)-N-(3-(1-((2-ethyl-2H-pyrazolo[3,4-b]pyrazin-6-yl)amino)ethyl)-4-methylphenyl)-2-(5-fluoropyridin-3-yl) acetamide] | < 300 | < 300
CCn1cc2ncc(N[C@@H](C)c3cccc(NC(=O)Cc4ccc(C(F)(F)F)c(F)c4)c3)nc2n1 [Compound 628, (S)-N-(3-(1-((2-ethyl-2H-pyrazolo[3,4-b]pyrazin-6-yl)amino)ethyl)phenyl)-2-(3-fluoro-4-(trifluoromethyl)phenyl)acetamide] | < 300 | ≥ 1000
CCn1ncc2ncc(N[C@@H](C)c3cccc(NC(=O)c4cncc(C)c4)c3)nc21 [Compound 176, (S)-N-(3-(1-((1-ethyl-1H-pyrazolo[3,4-b]pyrazin-6-yl)amino)ethyl)phenyl)-5-methylnicotinamide] | < 300 | < 300
CCn1cc2ncc(N[C@@H](C)c3cccc(NC(=O)c4ccc(N5CCNCC5)nc4)c3)nc2n1 [Compound 397, (S)-N-(3-(1-((2-ethyl-2H-pyrazolo[3,4-b]pyrazin-6-yl)amino)ethyl)phenyl)-6-(piperazin-1-yl)nicotinamide] | 300 to 1000 | ≥ 1000
CCn1cc2ncc(N[C@@H](C)c3cccc(NC(=O)c4cnc(-c5cnn(C)c5)s4)c3)nc2n1 [Compound 342, (S)-N-(3-(1-((2-ethyl-2H-pyrazolo[3,4-b]pyrazin-6-yl)amino)ethyl)phenyl)-2-(1-methyl-1H-pyrazol-4-yl) thiazole-5-carboxamide] | 300 to 1000 | ≥ 1000
CCn1cc2ncc(N[C@@H](C)c3cc(NC(=O)c4ccc(CN5CCN(C)CC5)c(Cl)c4)ccc3F)nc2n1 [Compound 429, (S)-3-chloro-N-(3-(1-((2-ethyl-2H-pyrazolo[3,4-b]pyrazin-6-yl)amino)ethyl)-4-fluorophenyl)-4-((4-methylpiperazin-1-yl)methyl)benzamide] | < 300 | < 300
C[C@H](Nc1cnc2cnn(C)c2n1)c1cccc(NC(=O)c2ccc3ncn(C)c3c2)c1 [Compound 73, (S)-1-methyl-N-(3-(1-((1-methyl-1H-pyrazolo[3,4-b]pyrazin-6-yl)amino)ethyl)phenyl)-1H-benzo[d]imidazole-6-carboxamide] | < 300 | < 300
Cc1cc(C(=O)Nc2cccc([C@H](C)Nc3cnc4cnn(C)c4n3)c2)ccc1C(=O)OCCO [Compound 257, 2-hydroxyethyl (S)-2-methyl-4-((3-(1-((1-methyl-1H-pyrazolo[3,4-b]pyrazin-6-yl)amino)ethyl)phenyl)carbamoyl) benzoate] | < 300 | < 300
CCn1cc2ncc(N[C@@H](C)c3cccc(NC(=O)Cc4cccc(F)c4F)c3)nc2n1 [Compound 454, (S)-2-(2,3-difluorophenyl)-N-(3-(1-((2-ethyl-2H-pyrazolo[3,4-b]pyrazin-6-yl)amino)ethyl)phenyl)acetamide] | < 300 | 300 to 1000
CCn1cc2ncc(N[C@@H](C)c3cccc(NC(=O)c4cnc(C(F)(F)F)c(C)c4)c3)nc2n1 [Compound 288, (S)-N-(3-(1-((2-ethyl-2H-pyrazolo[3,4-b]pyrazin-6-yl)amino)ethyl)phenyl)-5-methyl-6-(trifluoromethyl)nicotinamide] | < 300 | < 300

Continued, values first:

IC50 [1] [nM] | IC50 [2] [nM] | SMILES
< 300 | < 300 | CCn1cc2ncc(N[C@@H](C)c3cc(NC(=O)c4ccc(OC(F)F)nc4)ccc3F)nc2n1 [Compound 304, (S)-6-(difluoromethoxy)-N-(3-(1-((2-ethyl-2H-pyrazolo[3,4-b]pyrazin-6-yl)amino)ethyl)-4-fluorophenyl)nicotinamide]
< 300 | < 300 | CCn1cc2ncc(N[C@@H](C)c3cccc(NC(=O)Cc4cc(C)cc(F)c4)c3)nc2n1 [Compound 639, (S)-N-(3-(1-((2-ethyl-2H-pyrazolo[3,4-b]pyrazin-6-yl)amino)ethyl)phenyl)-2-(3-fluoro-5-methylphenyl) acetamide]
< 300 | < 300 | CCn1cc2ncc(N[C@@H](C)c3cc(NC(=O)c4ccc(CN5CCN(C)CC5)c(C(F)(F)F)c4)ccc3F)nc2n1 [Compound 444, (S)-N-(3-(1-((2-ethyl-2H-pyrazolo[3,4-b]pyrazin-6-yl)amino)ethyl)-4-fluorophenyl)-4-((4-methylpiperazin-1-yl)methyl)-3-(trifluoromethyl) benzamide]
< 300 | < 300 | CCc1cncc(C(=O)Nc2cccc([C@H](C)Nc3cnc4cnn(C)c4n3)c2)c1 [Compound 101]
< 300 | < 300 | Cc1cncc(C(=O)Nc2cccc([C@H](C)Nc3cnc4cc(C)oc4n3)c2)c1 [Compound 17, (S)-5-methyl-N-(3-(1-((6-methylfuro[2,3-b]pyrazin-3-yl)amino)ethyl)phenyl)nicotinamide]
< 300 | < 300 | CSc1cc(C(=O)Nc2cccc([C@H](C)Nc3cnc4cnn(C)c4n3)c2)ccc1CN1CCN(C)CC1 [Compound 238, (S)-N-(3-(1-((1-methyl-1H-pyrazolo[3,4-b]pyrazin-6-yl)amino)ethyl)phenyl)-4-((4-methylpiperazin-1-yl)methyl)-3-(methylthio)benzamide]
< 300 | < 300 | Cc1cncc(C(=O)Nc2cccc(CNc3cnc4ccccc4n3)c2)c1 [Compound 31, 5-methyl-N-(3-((quinoxalin-2-ylamino)methyl)phenyl) nicotinamide]
< 300 | < 300 | COc1ncc(C(=O)Nc2cccc([C@H](C)Nc3cnc4cnn(C)c4n3)c2)cc1C [Compound 128, (S)-6-methoxy-5-methyl-N-(3-(1-((1-methyl-1H-pyrazolo[3,4-b]pyrazin-6-yl)amino)ethyl)phenyl)nicotinamide]
< 300 | < 300 | CC(C)c1cc(C(=O)Nc2cccc([C@H](C)Nc3cnc4cnn(C)c4n3)c2)n(C)n1 [Compound 165, (S)-3-isopropyl-1-methyl-N-(3-(1-((1-methyl-1H-pyrazolo[3,4-6]pyrazin-6-yl)amino)ethyl)phenyl)-1H-pyrazole-5-carboxamide]
< 300 | 300 to 1000 | CCn1cc2ncc(N[C@@H](C)c3cc(NC(=O)Cc4cncc(C)c4)ccc3F)nc2n1 [Compound 652, (S)-N-(3-(1-((2-ethyl-2H-pyrazolo[3,4-b]pyrazin-6-yl)amino)ethyl)-4-fluorophenyl)-2-(5-methylpyridin-3-yl) acetamide]
< 300 | < 300 | C[C@H](Nc1cnc2cnn(C)c2n1)c1cccc(NC(=O)Nc2ccccc2)c1 [Compound 729, (S)-1-(3-(1-((1-methyl-1H-pyrazolo[3,4]pyrazin-6-yl)amino)ethyl)phenyl)-3-phenylurea]
< 300 | < 300 | CCc1cc(C(=O)Nc2cccc([C@H](C)Nc3cnc4cn(CC)nc4n3)c2)ccc1CN1CC2(COC2)C1 [Compound 499, (S)-4-((2-oxa-6-azaspiro[3,3]heptan-6-yl)methyl)-3-ethyl-N-(3-(1-((2-ethyl-2H-pyrazolo[3,4-b]pyrazin-6-yl)amino)ethyl)phenyl)benzamide]
< 300 | < 300 | COc1ncc(C(=O)Nc2cccc([C@H](C)Nc3cnc4[nH]cc(-c5cnn(C)c5)c4n3)c2)cc1C [Compound 579, (S)-6-methoxy-5-methyl-N-(3-(1-((7-(1-methyl-1H-pyrazol-4-yl)-5H-pyrrolo[2,3-b]pyrazin-2-yl)amino)ethyl)phenyl) nicotinamide]
< 300 | < 300 | CCn1cc2ncc(N[C@@H](C)c3cccc(NC(=O)Cc4ccc(F)cc4)c3)nc2n1 [Compound 638, (S)-N-(3-(1-((2-ethyl-2H-pyrazolo[3,4-b]pyrazin-6-yl)amino)ethyl)phenyl)-2-(4-fluorophenyl)acetamide]
< 300 | < 300 | CCn1cc2ncc(N[C@@H](C)c3cc(NC(=O)c4cc(C)c(CN5CCOCC5)c(F)c4)ccc3C)nc2n1 [Compound 526, (S)-N-(3-(1-((2-ethyl-2H-pyrazolo[3,4-b]pyrazin-6-yl)amino)ethyl)-4-methylphenyl)-3-fluoro-5-methyl-4-(morpholinomethyl)benzamide]
< 300 | < 300 | Cc1ncc(C(=O)Nc2cccc([C@H](C)Nc3cnc4cnn(C)c4n3)c2)s1 [Compound 138, (S)-2-methyl-N-(3-(1-((1-methyl-1H-pyrazolo[3,4-b]pyrazin-6-yl)amino)ethyl)phenyl)thiazole-5-carboxamide]
< 300 | < 300 | CCNc1ncc(C(=O)Nc2cccc([C@H](C)Nc3cnc4cn(CC)nc4n3)c2)cc1Cl [Compound 420, (S)-5-chloro-N-(3-(1-((2-ethyl-2H-pyrazolo[3,4-b]pyrazin-6-yl)amino)ethyl)phenyl)-6-(ethylamino)nicotinamide]
